Patent US10947188B2, “Small molecule ferroptosis inducers” (THE TRUSTEES OF COLUMBIA UNIVERSITY IN THE CITY OF NEW YORK, priority 2016, dated 2021)
Converted amounts (≈) assume the structure as drawn.

Columns and labels:
HT-1080 cells = test: Lethality of commercially available CIL41/70 structural analogs; type: cell-based; details: Homo sapiens, tested once in technical triplicates
Protocol: 1,000 cells per 36 μl were seeded in each well in 384-well plates. Lethal compounds were dissolved, and a twofold, 12-point dilution series was prepared in DMSO. Compound solutions were further diluted with media at 1:25, and 4 μl per well of the diluted solutions was added to cell cultures immediately after cells were seeded. […] When other cell-death-modulating compounds (100 nM sodium selenite, 1 μM cerivastatin, 100 μg/mL mevalonic acid) were used in cotreatments, they were supplemented to cell culture for 24 h before lethal compounds were added to cell culture, after which cells were further incubated for 24 h at 37° C. under 5% CO2. On the day of the viability measurement, we added 10 μl per well of 50% Alamar Blue diluted in media (Life Technologies) and further incubated the cells at 37° C. for 6 h. Fluorescence intensity (excitation/emission: 530/590) was measured with a Victor 3 plate reader (PerkinElmer), and the normalized viability was calculated as VL=(IL−I0)/(IV−I0), where VL, I0, IV, and IL are the normalized viability and the raw fluorescence intensities from the wells containing media, cells treated with a vehicle (negative control), and cells with the lethal compound (L), respectively. When the effect of a chemical modulator (M) on L was calculated, we instead used the equation VL|M=(IM,L−I0)/(IM,V−I0), where VL|M, IM,L and IM,V are the normalized viability, and fluorescence intensity from cells treated with […], respectively. The viability was typically measured in biological triplicate unless otherwise specified. A representative dose-response curve, the mean and standard error of normalized viability from one replicate were plotted. HT-1080 viability after modulator treatments corresponding to FIG. 3C and FIGS. 5E-5F is available in FIGS. 19A-19C.
Their lethality was tested once in HT-1080 cells in technical triplicates.

HT-1080 = test: Modulatory profiling: Alamar Blue viability, lethal compound cotreated with death modulator (EC50, AUC); type: cell-based; parameters: AUC, modulator HT.3MA / AUC, modulator HT.ALLN / AUC HT.ATA / AUC HT.ActD / AUC HT.BHA / AUC HT.BHT / AUC HT.BocD / AUC HT.CHX / AUC HT.Co2+ / AUC HT.DPQ / AUC HT.EGTA / AUC HT.Lmim / AUC HT.NAD+ / AUC HT.Nec-1 / AUC HT.SP600125 / AUC HT.TLCK / AUC HT.U0126: unit not given beside the values
BJeLR = test: as above; type: cell-based, human; parameters: AUC, modulator BJ.Gd3+ / AUC, modulator BJ.LNAME / AUC, modulator BJ.Lmin / AUC, modulator BJ.3MA / AUC, modulator BJ.ALLN / AUC, modulator BJ.Boc D / AUC, modulator BJ.CHX / AUC, modulator BJ.Co2+ / AUC, modulator BJ.Nec-1 / AUC, modulator BJ.Pepstatin / AUC, modulator BJ.TLCK / AUC, modulator BJ.atoc / AUC, modulator BJ.trolox / AUC, modulator BJ.zVAD: unit not given beside the values; details: BJeLR cells, modulatory profile value (AUC)

COc1ccccc1C/C(N)=N/OC(=O)COc1cccc(C)c1 [CB26]
EC50 (HT-1080 cells): > 20 mg/L

N/C(Cc1cccc2ccccc12)=N\OC(=O)COc1ccccc1 [CB27]
EC50 (HT-1080 cells): > 20 mg/L

Cc1ccccc1OCC(=O)O/N=C(\N)Cc1ccc(Cl)cc1Cl [CB28]
EC50 (HT-1080 cells): > 20 mg/L

COc1ccccc1C/C(N)=N/OC(=O)COc1ccc(C)cc1 [CB29]
EC50 (HT-1080 cells): > 20 mg/L

N/C(Cc1cccs1)=N\OC(=O)COc1ccc(Br)cc1 [CB30]
EC50 (HT-1080 cells): > 20 mg/L

COc1ccc(C/C(N)=N/OC(=O)COc2ccccc2C)cc1 [CB31]
EC50 (HT-1080 cells): > 20 mg/L

N/C(Cc1ccc(Cl)cc1Cl)=N\OC(=O)COc1ccccc1 [CB32]
EC50 (HT-1080 cells): > 20 mg/L

COc1ccccc1C/C(N)=N/OC(=O)COc1ccccc1C [CB33]
EC50 (HT-1080 cells): > 20 mg/L

Cc1cccc(OCC(=O)O/N=C(\N)Cc2ccc(Cl)cc2)c1 [CB34]
EC50 (HT-1080 cells): > 20 mg/L

Cc1cccc(OCC(=O)O/N=C(\N)Cc2ccc(Cl)cc2Cl)c1 [CB35]
EC50 (HT-1080 cells): > 20 mg/L

COc1ccc(C/C(N)=N/OC(=O)COc2ccc(Br)c(C)c2)cc1OC [CB36]
EC50 (HT-1080 cells): > 20 mg/L

COc1ccc(C/C(N)=N/OC(=O)COc2ccc(Br)c(C)c2)cc1 [CB37]
EC50 (HT-1080 cells): > 20 mg/L

Cc1cc(OCC(=O)O/N=C(\N)Cc2cccs2)ccc1Br [CB38]
EC50 (HT-1080 cells): > 20 mg/L

Cc1cccc(OCC(=O)O/N=C(\N)Cc2ccc([N+](=O)[O-])cc2)c1 [CB39]
EC50 (HT-1080 cells): > 20 mg/L

Cc1cccc(OCC(=O)O/N=C(\N)Cc2cccs2)c1 [CB40]
EC50 (HT-1080 cells): > 20 mg/L

COc1ccccc1C/C(N)=N/OC(=O)COc1ccc(Br)cc1 [CB41]
EC50 (HT-1080 cells): > 20 mg/L

N/C(Cc1ccc(Cl)cc1)=N\OC(=O)COc1ccc(Br)cc1 [CB42]
EC50 (HT-1080 cells): > 20 mg/L

N/C(Cc1ccc([N+](=O)[O-])cc1)=N\OC(=O)COc1ccc(Br)cc1 [CB43]
EC50 (HT-1080 cells): > 20 mg/L

Cc1cccc(OCC(=O)O/N=C(\N)Cc2cccc3ccccc23)c1 [CB44]
EC50 (HT-1080 cells): > 20 mg/L

COc1ccccc1C/C(N)=N/OC(=O)COc1ccc(Br)c(C)c1 [CB45]
EC50 (HT-1080 cells): > 20 mg/L

Cc1ccccc1OCC(=O)O/N=C(\N)Cc1cccc2ccccc12 [CB46]
EC50 (HT-1080 cells): > 20 mg/L

COc1ccc(C/C(N)=N/OC(=O)COc2ccc(C)cc2Br)cc1 [CB47]
EC50 (HT-1080 cells): > 20 mg/L

N/C(Cc1ccc(Cl)c(Cl)c1)=N\OC(=O)COc1ccccc1 [CB48]
EC50 (HT-1080 cells): > 20 mg/L

COc1ccccc1C/C(N)=N/OC(=O)COc1cc(C)c(Cl)c(C)c1 [CB49]
EC50 (HT-1080 cells): 7.23 mg/L (≈ 19.2 µM)

Cc1cc(OCC(=O)O/N=C(\N)Cc2ccc([N+](=O)[O-])cc2)cc(C)c1Cl [CB50]
EC50 (HT-1080 cells): > 20 mg/L

COc1ccc(CC(=O)O/N=C(\N)Cc2ccc([N+](=O)[O-])cc2)cc1OC [CB51]
EC50 (HT-1080 cells): > 20 mg/L

COc1ccccc1C/C(N)=N/OC(=O)COc1ccc(Cl)cc1 [CB52]
EC50 (HT-1080 cells): > 20 mg/L

COc1ccc(C/C(N)=N/OC(=O)COc2ccc3ccccc3c2)cc1 [CB53]
EC50 (HT-1080 cells): > 20 mg/L

CC(/C=C/C(=O)NO)=C\[C@@H](C)C(=O)c1ccc(N(C)C)cc1 [TrichostatinA]
AUC HT.ATA (HT-1080; HT-1080, modulator ATA): −0.0004817 | AUC HT.ActD (HT-1080; HT-1080, modulator ActD): −0.1678 | AUC HT.BHA (HT-1080; HT-1080, modulator BHA): −0.06956 | AUC HT.BHT (HT-1080; HT-1080, modulator BHT): −0.1352 | AUC HT.BocD (HT-1080; HT-1080, modulator BocD): 0.04109 | AUC HT.CHX (HT-1080; HT-1080, modulator CHX): −0.09696 | AUC HT.Co2+ (HT-1080; HT-1080, modulator Co2+): −0.02771 | AUC HT.CspA (HT-1080; HT-1080, modulator CspA): −0.1437 | AUC HT.DPQ (HT-1080; HT-1080, modulator DPQ): −0.001553 | AUC HT.EGTA (HT-1080; HT-1080, modulator EGTA): −0.01711 | AUC HT.Gd3+ (HT-1080; HT-1080, modulator Gd3+): −0.003398 | AUC HT.LNAME (HT-1080; HT-1080, modulator LNAME): 0.003502 | AUC HT.Lmim (HT-1080; HT-1080, modulator Lmim): −0.05021 | AUC HT.NAD+ (HT-1080; HT-1080, modulator NAD+): 0.03432 | AUC HT.NMMA (HT-1080; HT-1080, modulator NMMA): 0.004335 | AUC HT.Nec-1 (HT-1080; HT-1080, modulator Nec-1): −0.07289 | AUC HT.Pepstatin (HT-1080; HT-1080, modulator Pepstatin): −0.003985 | AUC HT.SP600125 (HT-1080; HT-1080, modulator SP600125): −0.06865 | AUC HT.TLCK (HT-1080; HT-1080, modulator TLCK): −0.02599 | AUC HT.U0126 (HT-1080; HT-1080, modulator U0126): −0.06468 | HT.atoc (AUC) (HT-1080; HT-1080, modulator atoc): −0.005062 | HT.bCarotene (AUC) (HT-1080; HT-1080, modulator bCarotene): −0.03472 | HT.deferox (AUC) (HT-1080; HT-1080, modulator deferox): −0.1597 | HT.digoxin (AUC) (HT-1080; HT-1080, modulator digoxin): −0.1261 | HT.trolox (AUC) (HT-1080; HT-1080, modulator trolox): −0.03382 | HT.zVAD (AUC) (HT-1080; HT-1080, modulator zVAD): 0.04012 | AUC, modulator HT.3MA (HT-1080; HT-1080 cells, lethal compound cotreated with modulator 3MA, modulatory profile value (AUC)): −0.1241 | AUC, modulator HT.ALLN (HT-1080; HT-1080 cells, lethal compound cotreated with modulator ALLN, modulatory profile value (AUC)): −0.1481 | AUC, modulator BJ.3MA (BJeLR; lethal compound cotreated with modulator 3MA): −0.004309 | AUC, modulator BJ.ALLN (BJeLR; lethal compound cotreated with modulator ALLN): −0.08774 | AUC, modulator BJ.Boc D (BJeLR; lethal compound cotreated with modulator Boc D): 0.09612 | AUC, modulator BJ.CHX (BJeLR; lethal compound cotreated with modulator CHX): 0.2588 | AUC, modulator BJ.Co2+ (BJeLR; lethal compound cotreated with modulator Co2+): 0.3091 | AUC, modulator BJ.DPQ (BJeLR; lethal compound cotreated with modulator DPQ): −0.009523 | AUC, modulator BJ.Gd3+ (BJeLR; lethal compound cotreated with modulator Gd3+): −0.008802 | AUC, modulator BJ.LNAME (BJeLR; lethal compound cotreated with modulator LNAME): −0.04203 | AUC, modulator BJ.Lmin/NAD+ (BJeLR; lethal compound cotreated with modulator Lmin/NAD+): 0.1597 | AUC, modulator BJ.Lmin (BJeLR; lethal compound cotreated with modulator Lmin): 0.08423 | AUC, modulator BJ.NAD+ (BJeLR; lethal compound cotreated with modulator NAD+): 0.05544 | AUC, modulator BJ.NMMA (BJeLR; lethal compound cotreated with modulator NMMA): −0.01861 | AUC, modulator BJ.Nec-1 (BJeLR; lethal compound cotreated with modulator Nec-1): −0.04751 | AUC, modulator BJ.Pepstatin (BJeLR; lethal compound cotreated with modulator Pepstatin): −0.01284 | AUC, modulator BJ.TLCK (BJeLR; lethal compound cotreated with modulator TLCK): 0.02879 | AUC, modulator BJ.atoc (BJeLR; lethal compound cotreated with modulator atoc): −0.01806 | AUC, modulator BJ.trolox (BJeLR; lethal compound cotreated with modulator trolox): −0.02672 | AUC, modulator BJ.zVAD (BJeLR; lethal compound cotreated with modulator zVAD): 0.1198
